Columns and labels:
human LTA4 hydrolase = molecular target: T1, human LTA4 hydrolase (Homo sapiens, UniProt P09960); assay: LTA4H Enzyme assay (peptidase, Arg-AMC cleavage); assay type: biochemical; settings: LTA4H enzyme 1 nM, Arg-AMC substrate 50 μM, room temperature 1 h, fluorescence 380/460 nm
T1 sequence (P09960 1-611): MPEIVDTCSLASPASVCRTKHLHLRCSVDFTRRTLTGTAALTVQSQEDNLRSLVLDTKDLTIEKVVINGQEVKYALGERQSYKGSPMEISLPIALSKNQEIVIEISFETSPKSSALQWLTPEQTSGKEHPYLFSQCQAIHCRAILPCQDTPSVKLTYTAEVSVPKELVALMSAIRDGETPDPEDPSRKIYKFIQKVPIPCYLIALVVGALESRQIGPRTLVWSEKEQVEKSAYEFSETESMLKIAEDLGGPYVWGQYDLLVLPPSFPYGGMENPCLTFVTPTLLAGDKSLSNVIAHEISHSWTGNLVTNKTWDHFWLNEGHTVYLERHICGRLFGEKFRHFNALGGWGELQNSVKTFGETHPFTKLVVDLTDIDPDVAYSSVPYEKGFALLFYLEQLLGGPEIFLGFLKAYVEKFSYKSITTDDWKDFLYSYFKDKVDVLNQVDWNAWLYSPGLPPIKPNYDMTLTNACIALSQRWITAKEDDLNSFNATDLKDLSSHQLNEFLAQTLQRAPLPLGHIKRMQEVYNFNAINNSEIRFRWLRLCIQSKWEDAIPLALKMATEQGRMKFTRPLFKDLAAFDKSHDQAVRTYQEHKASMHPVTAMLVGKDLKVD
In short: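 Human LTA4H (1 nM final) incubated with compound and Arg-AMC (50 μM final) in 50 mM Tris-HCl pH 7.5, 100 mM KCl, 0.5% BSA, 1 h at room temperature. Product read as AMC fluorescence (ex 380/em 460 nm); IC50 reported.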

[1] = test system: LTB4 synthesis in human whole blood; assay: human whole blood (HWB) assay, inhibition of LTB4 production; assay type: cell-based; settings: heparinized human whole blood, calcimycin 20 μM stimulation, plasma LTB4
In short: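 Heparinized human whole blood preincubated with compound 15 min at 37 °C, then stimulated with 20 μM (final) calcimycin for 30 min at 37 °C. Plasma LTB4 measured by antibody-based HTRF; IC50 reported.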

Structure (SMILES) | IC50 (human LTA4 hydrolase) [nM] | IC50 [1] [nM]
CC(=O)N1CC2CCC(C1)N2Cc1ccc2cc(Oc3ccc(-c4ccn[nH]4)cc3)ccc2n1 [Example 245, 1-(8-{6-[4-(2H-Pyrazol-3-yl)-phenoxy]-quinolin-2-ylmethyl}-3,8-diaza-bicyclo[3.2.1]oct-3-yl)-ethanone] | 0.18 | 170
COCCNCc1nc2cc(Oc3ccc(-c4ccn[nH]4)cc3)ccc2[nH]1 [Example 91, (2-Methoxy-ethyl)-{5-[4-(2H-pyrazol-3-yl)-phenoxy]-1H-benzoimidazol-2-ylmethyl}-amine] | 0.21 | 140
O=C(CO)N1CCN(Cc2ccc3cc(Oc4ccc(-c5ccn[nH]5)cn4)ccc3n2)CC1 [Example 27, 2-Hydroxy-1-(4-{6-[5-(2H-pyrazol-3-yl)-pyridin-2-yloxy]-quinolin-2-ylmethyl}-piperazin-1-yl)-ethanone] | 0.72 | 150
c1cc(-c2ccc(Oc3ccc4[nH]c(C5(N6CCOCC6)CC5)nc4c3)cc2)[nH]n1 [Example 59, 2-(1-Morpholin-4-yl-cyclopropyl)-5-[4-(2H-pyrazol-3-yl)-phenoxy]-1H-benzoimidazole] | 0.13 | 130
CC[C@H](C)N(Cc1nc2cc(Oc3ccc(-c4ccn[nH]4)cc3)ccc2[nH]1)C(C)=O [Example 103, N—((S)-sec-butyl)-N-{5-[4-(2H-pyrazol-3-yl)-phenoxy]-1H-benzoimidazol-2-ylmethyl}-acetamide] | 0.27 | 190
O=C(CNCc1ccc2cc(Oc3ccc(-c4ccn[nH]4)cn3)ccc2n1)N1CCCC1 [Example 45, 2-({6-[5-(2H-Pyrazol-3-yl)-pyridin-2-yloxy]-quinolin-2-ylmethyl}-amino)-1-pyrrolidin-1-yl-ethanone] | 2.8 | 420
c1cc(-c2ccc(Oc3ccc4nc(CN5CCC5)ccc4c3)nc2)[nH]n1 [Example 21, 2-Azetidin-1-ylmethyl-6-[5-(2H-pyrazol-3-yl)-pyridin-2-yloxy]-quinoline] | 0.22 | 86
CC(C)C(=O)N1CCN(Cc2ccc3cc(Oc4ccc(-c5ccn[nH]5)cn4)ccc3n2)CC1 [Example 26, 2-Methyl-1-(4-{6-[5-(2H-pyrazol-3-yl)-pyridin-2-yloxy]-quinolin-2-ylmethyl}-piperazin-1-yl)-propan-1-one] | 0.57 | 130
CC(=O)NC1CCN(Cc2ccc3cc(Oc4ccc(-c5ccn[nH]5)cn4)ccc3c2)CC1 [Example 6, N-(1-{6-[5-(2H-Pyrazol-3-yl)-pyridin-2-yloxy]-naphthalen-2-ylmethyl}-piperidin-4-yl)-acetamide] | 0.37 | 210
c1cc(-c2ccc(Oc3ccc4cc(CN5CCCC5)oc4c3)nc2)[nH]n1 [Example 127, 5-(2H-Pyrazol-3-yl)-2-(2-pyrrolidin-1-ylmethyl-benzofuran-6-yloxy)-pyridine] | 0.68 | 130
CC(=O)N[C@@H]1C[C@H]2CC[C@@H](C1)N2Cc1ccc2cc(Oc3ccc(-c4cc[nH]n4)cn3)ccc2n1 [Example 239, N-((exo)-8-{6-[5-(1H-Pyrazol-3-yl)-pyridin-2-yloxy]-quinolin-2-ylmethyl}-8-aza-bicyclo[3.2.1]oct-3-yl)-acetamide] | 0.43 | 260
CC(=O)N[C@@H]1C[C@H]2CC[C@@H](C1)N2CC1Cc2ccc(Oc3ccc(-c4ccn[nH]4)cc3)cc2O1 (stereo partly drawn) [Example 142, N-((exo)-8-{6-[4-(2H-Pyrazol-3-yl)-phenoxy]-2,3-dihydro-benzofuran-2-ylmethyl}-8-aza-bicyclo[3.2.1]oct-3-yl)-acetamide] | 0.25 | 210
c1cc(-c2ccc(Oc3ccc4cc(CN5CCCC5)ccc4c3)nc2)[nH]n1 [Example 3, 5-(2H-Pyrazol-3-yl)-2-(6-pyrrolidin-1-ylmethyl-naphthalen-2-yloxy)-pyridine] | 0.34 | 120
O=C1CC[C@@H](Cn2ncc3cc(Oc4ccc(-c5ccn[nH]5)cn4)ccc32)N1 [Example 117, (S)-5-{5-[5-(2H-Pyrazol-3-yl)-pyridin-2-yloxy]-indazol-1-ylmethyl}-pyrrolidin-2-one] | 4.4 | 650
CC1(NC(=O)CO)CCN(Cc2ccc3cc(Oc4ccc(-c5ccn[nH]5)cn4)ccc3n2)CC1 [Example 46, 2-Hydroxy-N-(4-methyl-1-{6-[5-(2H-pyrazol-3-yl)-pyridin-2-yloxy]-quinolin-2-ylmethyl}-piperidin-4-yl)-acetamide] | 1.6 | 540
O[C@H]1CCN(Cc2nc3ccc(Oc4ccc(-c5ccn[nH]5)cc4)cc3[nH]2)C1 [Example 66, (S)-1-{6-[4-(2H-Pyrazol-3-yl)-phenoxy]-1H-benzoimidazol-2-ylmethyl}-pyrrolidin-3-ol] | 0.14 | 240
C[C@H](O)C(=O)N1CCN(Cc2ccc3cc(Oc4ccc(-c5ccn[nH]5)cc4)ccc3n2)CC1 [Example 13, (S)-2-hydroxy-1-(4-{6-[4-(2H-pyrazol-3-yl)-phenoxy]-quinolin-2-ylmethyl}-piperazin-1-yl)-propan-1-one] | 0.59 | 200
c1cc(-c2ccc(Oc3ccc4nc(OCCN5CCOCC5)ccc4c3)nc2)[nH]n1 [Example 120, 2-(2-morpholin-4-yl-ethoxy)-6-[5-(2H-pyrazol-3-yl)-pyridin-2-yloxy]-quinoline] | 25 | 3100

Other lines, results leading:

IC50 (human LTA4 hydrolase) [nM] | IC50 [1] [nM] | Structure (SMILES)
0.11 | 98 | COC1CCN(Cc2nc3cc(Oc4ccc(-c5ccn[nH]5)cc4)ccc3[nH]2)C1 (stereo not shown) [Example 157, 2-(3-Methoxy-pyrrolidin-1-ylmethyl)-5-[4-(2H-pyrazol-3-yl)-phenoxy]-1H-benzoimidazole]
0.23 | 150 | COCCN(CCOC)Cc1nc2cc(Oc3ccc(-c4ccn[nH]4)cc3)ccc2[nH]1 [Example 186, Bis-(2-methoxy-ethyl)-{5-[4-(2H-pyrazol-3-yl)-phenoxy]-1H-benzoimidazol-2-ylmethyl}-amine]
0.85 | 230 | CC(=O)N1CCN(CCC2COc3cc(Oc4ccc(-c5ccn[nH]5)cn4)ccc32)CC1 (stereo not shown) [Example 143, 1-[4-(2-{6-[5-(2H-Pyrazol-3-yl)-pyridin-2-yloxy]-2,3-dihydro-benzofuran-3-yl}-ethyl)-piperazin-1-yl]-ethanone]
0.66 | 220 | O=C1CCCCN1C1CCN(Cc2ccc3cc(Oc4ccc(-c5ccn[nH]5)cn4)ccc3n2)CC1 [Example 209, 1′-{6-[5-(2H-Pyrazol-3-yl)-pyridin-2-yloxy]-quinolin-2-ylmethyl}-[1,4′]bipiperidinyl-2-one]
0.19 | 200 | CN(Cc1nc2cc(Oc3ccc(-c4ccn[nH]4)cc3)ccc2[nH]1)C1CCOCC1 [Example 230, Methyl-{5-[4-(2H-pyrazol-3-yl)-phenoxy]-1H-benzoimidazol-2-ylmethyl}-(tetrahydro-pyran-4-yl)-amine]
0.57 | 210 | c1cc(-c2ccc(Oc3ccc4nc(CN5CCOCC5)cn4c3)cc2)[nH]n1 [Example 250, 2-Morpholin-4-ylmethyl-6-[4-(2H-pyrazol-3-yl)-phenoxy]-imidazo[1,2-a]pyridine]
0.4 | 210 | O=C(CO)N1C[C@H]2C[C@@H]1CN2Cc1ccc2cc(Oc3ccc(-c4ccn[nH]4)cn3)ccc2n1 [Example 145, 2-Hydroxy-1-((1R,4R)-5-{6-[5-(2H-pyrazol-3-yl)-pyridin-2-yloxy]-quinolin-2-ylmethyl}-2,5-diaza-bicyclo[2.2.1]hept-2-yl)-ethanone]
0.22 | 95 | COCC1CCCN(Cc2nc3cc(Oc4ccc(-c5ccn[nH]5)cc4)ccc3[nH]2)C1 (stereo not shown) [Example 156, 2-(3-Methoxymethyl-piperidin-1-ylmethyl)-5-[4-(2H-pyrazol-3-yl)-phenoxy]-1H-benzoimidazole]
0.21 | 120 | COCC1CCN(Cc2nc3cc(Oc4ccc(-c5ccn[nH]5)cc4)ccc3[nH]2)C1 (stereo not shown) [Example 166, 2-(3-Methoxymethyl-pyrrolidin-1-ylmethyl)-5-[4-(2H-pyrazol-3-yl)-phenoxy]-1H-benzoimidazole]
0.3 | 170 | CO[C@H]1CCN(Cc2nc3cc(Oc4ccc(-c5ccn[nH]5)cc4)ccc3[nH]2)C1 [Example 226, 2-((S)-3-Methoxy-pyrrolidin-1-ylmethyl)-5-[4-(2H-pyrazol-3-yl)-phenoxy]-1H-benzoimidazole]
0.2 | 150 | CCCN(CCOC)Cc1nc2cc(Oc3ccc(-c4ccn[nH]4)cc3)ccc2[nH]1 [Example 184, (2-Methoxy-ethyl)-propyl-{5-[4-(2H-pyrazol-3-yl)-phenoxy]-1H-benzoimidazol-2-ylmethyl}-amine]

— patent US9403830B2, “Inhibitors of leukotriene production” (Boehringer Ingelheim International GmbH, priority 2012, dated 2016)
